The target of experiment [1] is T1, Glycogen synthase kinase-3 alpha (Homo sapiens, UniProt P49840). Put plainly: Inhibition of GSK3alpha (unknown origin).
Target sequence in this assay (P49840 whole entry): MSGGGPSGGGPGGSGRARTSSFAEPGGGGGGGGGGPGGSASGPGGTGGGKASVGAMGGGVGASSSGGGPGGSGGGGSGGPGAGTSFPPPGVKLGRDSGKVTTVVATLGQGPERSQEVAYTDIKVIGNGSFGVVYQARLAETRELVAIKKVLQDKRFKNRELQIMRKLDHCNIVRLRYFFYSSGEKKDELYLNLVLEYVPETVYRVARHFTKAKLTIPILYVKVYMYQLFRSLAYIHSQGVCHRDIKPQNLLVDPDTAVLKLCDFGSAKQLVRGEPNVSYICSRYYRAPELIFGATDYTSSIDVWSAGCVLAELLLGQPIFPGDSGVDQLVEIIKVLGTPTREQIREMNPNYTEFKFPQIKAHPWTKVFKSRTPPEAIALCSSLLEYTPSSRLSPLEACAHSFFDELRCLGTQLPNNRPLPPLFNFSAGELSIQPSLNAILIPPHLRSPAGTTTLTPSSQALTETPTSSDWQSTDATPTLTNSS
The target in experiment [2] is T2, Glycogen synthase kinase-3 beta (Homo sapiens, UniProt P49841). The experiment in a line: Inhibition of GSK3beta (unknown origin).
Target sequence in this assay (P49841 whole entry): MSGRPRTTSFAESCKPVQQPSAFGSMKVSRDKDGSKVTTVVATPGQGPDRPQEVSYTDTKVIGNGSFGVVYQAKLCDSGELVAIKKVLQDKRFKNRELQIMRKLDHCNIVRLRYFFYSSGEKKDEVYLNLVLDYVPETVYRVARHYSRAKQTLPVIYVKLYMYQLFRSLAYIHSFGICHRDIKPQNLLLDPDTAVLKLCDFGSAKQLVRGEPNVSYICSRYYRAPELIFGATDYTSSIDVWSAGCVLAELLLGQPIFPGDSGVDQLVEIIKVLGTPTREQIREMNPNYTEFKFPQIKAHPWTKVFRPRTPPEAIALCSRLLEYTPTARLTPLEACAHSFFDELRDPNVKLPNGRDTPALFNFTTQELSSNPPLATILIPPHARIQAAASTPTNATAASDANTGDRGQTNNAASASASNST
The target in experiment [3] is T1, Glycogen synthase kinase-3 alpha. Put plainly: Inhibition of GSK3alpha (unknown origin) at 2 uM relative to control.
Target sequence in this assay (P49840 2-483 limits assumed): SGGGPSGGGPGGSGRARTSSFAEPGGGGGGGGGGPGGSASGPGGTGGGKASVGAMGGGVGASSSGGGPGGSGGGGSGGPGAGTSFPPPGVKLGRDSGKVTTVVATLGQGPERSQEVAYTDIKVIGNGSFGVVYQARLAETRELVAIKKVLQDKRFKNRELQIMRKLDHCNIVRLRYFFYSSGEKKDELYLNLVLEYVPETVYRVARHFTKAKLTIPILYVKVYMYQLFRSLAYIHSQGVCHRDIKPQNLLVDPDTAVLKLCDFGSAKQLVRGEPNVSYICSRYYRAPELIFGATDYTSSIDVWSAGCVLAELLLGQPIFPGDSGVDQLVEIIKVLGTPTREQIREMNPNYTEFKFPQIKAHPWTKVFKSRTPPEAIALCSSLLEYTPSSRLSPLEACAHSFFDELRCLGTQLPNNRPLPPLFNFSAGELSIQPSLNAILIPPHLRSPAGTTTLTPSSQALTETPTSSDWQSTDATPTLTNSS
Experiment [4] addresses T2, Glycogen synthase kinase-3 beta. Put plainly: Inhibition of GSK3beta (unknown origin) at 2 uM relative to control.
Target sequence in this assay (P49841 whole entry, looked up): as the sequence (P49841 whole entry) above

Structures are written as SMILES. Where only a bound is given, the exact number is not on record here.

By IC50 is commonly meant the midpoint of a concentration-inhibition curve. Read a low IC50 as inhibition by little substance. As to `OC1(c2ccccc2)CSC(=S)N1Cc1ccccc1` (stereo not drawn), the half-maximal inhibitory concentration (IC50) in experiment [1] and in experiment [2] was > 10 µM each time.
One may read the inhibition as the change of the read-out against control, counted positive when it falls. For `OC1(c2ccccc2)CSC(=S)N1Cc1ccncc1` (stereo not drawn), the inhibition in experiment [3] and in experiment [4] was > 90% in each case. Also, the figures for the IC50 in experiment [1] and in experiment [2] were 0.0182 µM and 0.0122 µM, respectively.
As for `OC1(c2ccccc2)CSC(=S)N1Cc1ccccn1` (stereo not drawn), the IC50 in experiment [1] and in experiment [2] was > 10 µM each time.

For the origin of these results see ChEMBL document CHEMBL6109041, “Docking and structure activity relationship studies of potent and selective thiazolidinethione GSK-3 inhibitors” (Bioorg Med Chem Lett, 2025).
